We go through 3 compounds from patent publication US5856535A, “Aminosterol ester compounds” (priority 1996, dated 1999).

The subject of data set [1] is human microvascular cells. Briefly: endothelial cell cord formation assay (human microvascular cells, VEGF and bFGF, collagen matrix). Format: cell-based. From the text: Endothelial cells have the capacity in vitro to form tubular aggregates resembling capillaries in various early stages of formation. This conversion occurs under relatively specific conditions, in which essential growth factors along with an effective substratum are provided. It has been shown that both the interaction of growth factors with the endothelial cell and its attachment to a substratum activate the NHE. The activation of this exchanger is believed to be required for subsequent morphologic transformation of the endothelial cell into a multicellular tubular structure.
To assess the effect of compounds on the cord-like structures formed by human microvascular cells when plated in the presence of VEGF (Vascular Endothelial Growth Factor) and basic fibroblast growth factor on a collagen matrix, a standard cord formation assay was performed using the method described by Goto, et al., "Synergistic Effects of Vascular Endothelial Growth Factor and Basic Fibroblast Growth Factor on the Proliferation and Cord Formation of Bovine Capillary Endothelial Cells Within Collagen Gels," Laboratory Investigation, Vol. 69, No. 5, 1993, pp. 508-517. This article is entirely incorporated herein by reference.

Data set [2] has as its system bacteria, fungi and protozoa. To be noted: cited from earlier work.
Data set [3] relates to Xenopus laevis Stages 59-60 tadpoles. Briefly: tadpole assay. To be noted: for vascular effect in tadpole (in words): about 60 minutes. Format: in vivo.
For data set [4], the system named is chick embryo vitelline capillaries. Briefly: chick embryo vitelline capillary regression assay. Format: in vivo. To be noted: for effect on vitelline capillaries (in words): 3- to 5-day chick embryo. As to the method: Using the chick embryo vitelline capillaries assay, various aminosterol compounds were tested for their ability to induce capillary regression. Each compound was applied in 0.1 ml of 15% Ficol 400 and PBS onto the embryo, and vascular regression was assessed after 60 minutes. These tests were conducted by the chorioallantoic membrane anti-angiogenesis assay by applying the material to be assayed to 3 day old fertilized chick embryos in the manner described by Wilks et al., "Inhibition of Angiogenesis With Combination Angiostatic Steroids and Suramin," Radiation Biology, Vol. 60, Nos. 1/2, 1991, pp. 73-77, which article is entirely incorporated herein by reference.
The 3-day chick embryo consists of an embryonic disc from which numerous vessels emerge and return, forming a "figure 8"-shaped structure--the embryo in the center with vascular loops extending outward over both poles. […] Following a lag period of around 15 minutes, the constriction of continuity between capillary and secondary vessels, generally on the "venous" side, was observed. Continued pulsatile blood flow progressed, resulting in a "swelling" of the blind tube, followed by a pinching off of the remaining connection and formation of an enclosed vascular sac resembling a "blood island." This process progressed until only the largest vessels remained intact.

Data set [5] deals with human ovarian carcinoma, SKOV3. Kind of data set: anticancer activity against SKOV3. Type of data set: cell-based.
For a further data set, the system named is HIV. Kind of data set: inhibition of HIV replication in vitro (HIV Inhib.). Format: cell-based.
The next data set deals with melanoma cells. Briefly: MTT assay for cell number. The following applies: Tables III-V; read-out: MTT assay IC50. Type of data set: cell-based. As to the method:
In Table V, several aminosterol esters show efficacy in killing melanoma cells in the MTT assay.
The MTT assay for cell number is performed as follows. Cells are counted on a hemocytometer and diluted to a concentration of approx. 10,000 cells/well (55,000 cells/ml×0.18 ml). Cells are then plated in a 96 well microtiter plate and allowed to attach overnight. The next day, compounds are serially diluted from 1000 to 15.6 μg/ml and run in duplicate. 20 μl of each dilution are transferred to the pre-seeded microtiter plates. The final concentrations are 100 to 1.56 μg/ml. The plates are then incubated for 48 hours at 37° C. in 5% CO2. After 48 hours, MTT solution is added. The plate is re-incubated for 4 hours. Readings are done by removing all but 30 μl of media and MTT solution and dissolving the formazan crystals with DMSO. The formazan is dissolved by mixing on a rotating plate at low speed for about 30 minutes. Absorbance of converted dye is measured at a wavelength of 560 nm with background subtraction at 630 nm. The percent survival is determined by a comparison between the mean absorbance of the duplicate test lanes and the growth control.
Background: Tetrazolium dyes change colour on reduction, which living cells bring about.

A further data set has as its system splenocytes. Briefly: mitogen proliferation assay (splenocytes of treated mice, Con A). Format: in vivo. The following applies: 10 mg/kg iv. As to the method: For the attached Tables, the mitogen proliferation assay was performed by treating mice (male or female) with various amounts of the aminosterol test compounds. Some time later (typically between 2 hours and 14 days), the mice are sacrificed and their spleens removed. Splenocytes are harvested and cultured in the presence of between 1-10 μg/ml of Con A (Sigma) for 48 hours. See James Morgan, "Monoclonal Antibody Production," Modern Methods in Pharmacology, pp. 29-67, eds., Spector and Back, 1988. This excerpt is entirely incorporated herein by reference. Cell proliferation is monitored either by direct cell counting or by measurement of the incorporation of radioactive thymidine.

Data set [6] is described as follows: inhibition of MSI-1436 binding. To be noted: 3H-MSI-1436 at 20 μg/mL.
A short description of a further data set: PBMC toxicity. The following applies: human.

Each structure is given as a SMILES string. In brackets after ≈: the same amount, converted by molar mass. Entries after “also recorded” stand apart in the source; their conditions may differ. A value given as a limit tells only on which side of the number the result lay.

Usually IC50 stands for the concentration that gives 50% inhibition.

Turning to `CC(C)[C@@H](CC[C@@H](C)[C@H]1CC[C@H]2[C@@H]3[C@H](O)C[C@H]4C[C@@H](NCCCNCCCCN)CC[C@]4(C)[C@H]3CC[C@]12C)OS(=O)(=O)O` [Squalamine, squalamine, reference compound], in data set [1] (Homo sapiens, Endothelial cell, text to the table, read-out: concentration at which cord formation is inhibited), the minimal effective concentration was roughly 0.1 µg/mL. Moreover, the “effect on cell viability or proliferation (in words)” value in data set [1] (at these concentrations) is recorded as “does not appear to profoundly affect cell viability or proliferation”. In addition, the “antibiotic activity (in words)” value in data set [2] was “broad-spectrum antibiotic, killing bacteria, fungi and protozoa”. Moreover, in data set [3] (10 μg/ml), the “unaffected functions in tadpole (in words)” value is “continued heartbeat; also recorded: unaltered blood flow through the fine capillaries of the hands and feet”. The “vascular effect in tadpole (in words)” value in [3] (10 μg/ml where stated) is “blood flow through the capillaries of the tail shut down; also recorded: enhanced regression of the most distal aspects of the tail; also recorded: common vascular occlusive effect”. Besides, the “effect on vitelline capillaries (in words)” value in data set [4] was “disrupt vitelline capillaries in 3- to 5-day chick embryos”; in data set [4] (listed as squalamine) it was “dramatic and rapid effect on capillary vessel integrity; also recorded: especially active”. Moreover, the “hemorrhage, hemolysis and heartbeat of embryo (in words)” value in data set [4] (3-day chick embryo) is listed as “embryonic heart continued to beat vigorously; also recorded: No hemorrhage was seen; also recorded: absence of hemolysis”.

As to `CC(C)C(CO)(CC[C@@H](C)[C@H]1CC[C@H]2[C@@H]3[C@H](O)C[C@H]4C[C@@H](NCCCNCCCCN)CC[C@]4(C)[C@H]3CC[C@]12C)OS(=O)(=O)O` (stereo partly drawn) [Compound 1437], the “time to shedding of larval skin” value in data set [3] (10 μg/ml) is no more than 60 min. For the same compound, the “effect on embryonic epithelium / epithelial shedding (in words)” value in [3] (10 μg/ml where stated) was “dramatic effect on the embryonic epithelium covering the tadpole tail; also recorded: larval skin was observed to shed off in a sheet”. Also, in [5], the “anticancer activity (in words)” value is recorded as “exhibit anticancer activity”.

For `CC(C)[C@@H](CC[C@@H](C)[C@H]1CC[C@H]2[C@@H]3[C@H](O)C[C@H]4C[C@@H](NCCCNCCCCNCCCN)CC[C@]4(C)[C@H]3CC[C@]12C)OS(=O)(=O)O` [Compound 1436, reference compound], the “% Inhib of HIV” value with HIV (140 nM, 0.14 µM) stood at 78%. In addition, in the data set on HIV (Human immunodeficiency virus 1, 140 nM, read-out: % Inhib of HIV), the inhibition at 0.14 µM was determined as 76%. Moreover, the half-maximal inhibitory concentration (IC50) in the data set on melanoma cells stood at 7.8 µg/mL (≈ 11.4 µM). Also, the “Rel. potency to MSI-1436, Mitogen Proliferation Assay” value in the data set with splenocytes came to 1. The “% Inhib. of MSI-1436 Binding @ 100 μg/mL” value in data set [6] was determined as 82%. In data set [3] (10 μg/ml where stated), the “vascular effect in tadpole (in words)” value is “common vascular occlusive effect”. In the data set “PBMC toxicity”, this compound gave a cytotoxicity at 14 µM of 0%.
